Experimental data reported in PubChem BioAssay (NCI).
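Cultured in 96-well plates, cells were exposed to test compound for 48 hours across five concentrations. TGI: concentration producing complete growth inhibition.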

What was measured:
Assay in all cases: NCI anticancer screen, dose series, 48 h
EKVX NSCLC = system: EKVX NSCLC
OVCAR-3 ovarian = system: OVCAR-3 ovarian
NCI-H460 lung = system: NCI-H460 lung
SNB-78 CNS = system: SNB-78 CNS
HCT-15 colon = system: HCT-15 colon
SF-295 CNS = system: SF-295 CNS
NCI-H522 lung = system: NCI-H522 lung
MOLT-4 leukemia = system: MOLT-4 leukemia
NCI-H226 lung = system: NCI-H226 lung
MALME-3M melanoma = system: MALME-3M melanoma
ACHN renal = system: ACHN renal
CAKI-1 renal = system: CAKI-1 renal
UO-31 renal = system: UO-31 renal
UACC-257 melanoma = system: UACC-257 melanoma
RXF 393 renal = system: RXF 393 renal
SK-MEL-2 melanoma = system: SK-MEL-2 melanoma
K-562 leukemia = system: K-562 leukemia
OVCAR-8 ovarian = system: OVCAR-8 ovarian
A498 renal = system: A498 renal
HT29 colon = system: HT29 colon
RPMI-8226 leukemia = system: RPMI-8226 leukemia
HCT-116 colon = system: HCT-116 colon
M14 melanoma = system: M14 melanoma
IGROV1 ovarian = system: IGROV1 ovarian
SNB-19 CNS = system: SNB-19 CNS
HL-60(TB) leukemia = system: HL-60(TB) leukemia
KM20L2 colon = system: KM20L2 colon
UACC-62 melanoma = system: UACC-62 melanoma
TK-10 renal = system: TK-10 renal
HOP-92 NSCLC = system: HOP-92 NSCLC
LXFL 529 NSCLC = system: LXFL 529 NSCLC
SF-268 CNS = system: SF-268 CNS
HCC-2998 colon = system: HCC-2998 colon
DMS 114 small cell lung = system: DMS 114 small cell lung
786-0 renal = system: 786-0 renal
M19-MEL melanoma = system: M19-MEL melanoma
RXF-631 renal = system: RXF-631 renal
SNB-75 CNS = system: SNB-75 CNS
LOX IMVI melanoma = system: LOX IMVI melanoma
SF-539 CNS = system: SF-539 CNS
OVCAR-4 ovarian = system: OVCAR-4 ovarian
U251 CNS = system: U251 CNS
CCRF-CEM leukemia = system: CCRF-CEM leukemia
XF 498 CNS = system: XF 498 CNS
SK-MEL-28 melanoma = system: SK-MEL-28 melanoma
SK-MEL-5 melanoma = system: SK-MEL-5 melanoma
OVCAR-5 ovarian = system: OVCAR-5 ovarian
SR leukemia = system: SR leukemia
KM12 colon = system: KM12 colon
COLO 205 colon = system: COLO 205 colon
A549 NSCLC = system: A549 NSCLC
HOP-18 NSCLC = system: HOP-18 NSCLC
SW-620 colon = system: SW-620 colon
DLD-1 colon = system: DLD-1 colon
SN12C renal = system: SN12C renal
NCI-H23 lung = system: NCI-H23 lung
HOP-62 NSCLC = system: HOP-62 NSCLC
DMS 273 small cell lung = system: DMS 273 small cell lung
SK-OV-3 ovarian = system: SK-OV-3 ovarian

Measured: TGI

CC(=O)C1CC=C(C)CC1 (configuration not stated)
> 100 µM: all assays above

COc1cc2c(c(C)c1O)[C@H]1COc3ccccc3[C@H]1O2
63.9 µM: KM20L2 colon
54 µM: RXF 393 renal
80.8 µM: TK-10 renal
89.1 µM: MALME-3M melanoma
30 µM: CAKI-1 renal
56.5 µM: K-562 leukemia
31.1 µM: LXFL 529 NSCLC
42.6 µM: 786-0 renal
56.6 µM: CCRF-CEM leukemia
52.2 µM: COLO 205 colon
35.5 µM: UO-31 renal
20.5 µM: DMS 273 small cell lung
25 µM: M19-MEL melanoma
24.6 µM: M14 melanoma
81.6 µM: A549 NSCLC
14.7 µM: LOX IMVI melanoma
34.5 µM: NCI-H226 lung
36.7 µM: SF-539 CNS
26.7 µM: SNB-19 CNS
89.3 µM: OVCAR-4 ovarian
67.3 µM: OVCAR-8 ovarian
47.6 µM: HOP-92 NSCLC | DMS 114 small cell lung
42.7 µM: MOLT-4 leukemia
22.9 µM: SK-MEL-5 melanoma
64.2 µM: NCI-H23 lung
12.7 µM: HL-60(TB) leukemia
96.1 µM: SF-268 CNS
52.9 µM: UACC-257 melanoma
18.7 µM: HCT-116 colon
80.7 µM: SNB-78 CNS
13.5 µM: NCI-H522 lung
74.7 µM: EKVX NSCLC
35.6 µM: HOP-18 NSCLC
29.8 µM: RXF-631 renal
31.3 µM: IGROV1 ovarian
75.3 µM: RPMI-8226 leukemia
18.5 µM: HCT-15 colon
23.7 µM: SNB-75 CNS
31.8 µM: NCI-H460 lung
not listed: UACC-62 melanoma | HCC-2998 colon | U251 CNS | XF 498 CNS | SR leukemia | SW-620 colon | SN12C renal
> 100 µM: all other assays above

N/N=C1\C(=O)N(C2CCCCC2)C(=O)C1C(=O)NC1CCCCC1 (configuration not stated)
51 µM: OVCAR-3 ovarian
39.9 µM: KM20L2 colon
93.6 µM: SN12C renal
74.7 µM: SK-MEL-2 melanoma
89.3 µM: HL-60(TB) leukemia
not listed: RXF 393 renal | TK-10 renal | DMS 273 small cell lung
> 100 µM: all other assays above

CN1C2(c3ccccc3)c3c(-c4ccccc4)sc(-c4ccccc4)c3C1(c1ccccc1)C1C(=O)N(c3ccccc3)C(=O)C12 (configuration not stated)
not listed: HCT-15 colon | MOLT-4 leukemia | SK-MEL-2 melanoma | SR leukemia
> 100 µM: all other assays above
